Test results: PMC4413193, “3-[4-(1H-Indol-3-yl)-1,3-thiazol-2-yl]-1H-pyrrolo[2,3-b]pyridines, Nortopsentin Analogues with Antiproliferative Activity” (Marine Drugs, 2015)

Test: Solubility noted during NMR characterisation
Assay type: physicochemical
Settings: NMR solvents (DMSO-d6 or CDCl3)
Protocol: All melting points were taken on a Büchi-Tottoly capillary apparatus. IR spectra were determined in bromoform with a Shimadzu FT/IR 8400S spectrophotometer. ^1H and ^13C NMR spectra were measured at 200 and 50.0 MHz, respectively, in dimethylsulfoxide (DMSO)-d6 or CDCl3 solution, using a Bruker Avance II series 200 MHz spectrometer. […] Column chromatography was performed with Merk silica gel 230–400 mesh ASTM or with Büchi Sepacor chromatography module (prepacked cartridge system). Elemental analyses (C, H, N) were within ±0.4% of theoretical values and were performed with a VARIO EL III elemental analyzer. Purity of all the tested compounds was greater than 98%, determined by HPLC as described below.

Row | solubility | Compound
1 | poor solubility | Cn1cc(-c2csc(-c3c[nH]c4ncccc34)n2)c2cc(F)ccc21 [Compound 3a, 3-[4-(5-Fluoro-1-methyl-1H-indol-3-yl)-1,3-thiazol-2-yl]-1H-pyrrolo[2,3-b]pyridine]
2 | poor solubility | Cn1cc(-c2csc(-c3cn(C)c4ncccc34)n2)c2cc(F)ccc21 [Compound 3b, 3-[4-(5-Fluoro-1-methyl-1H-indol-3-yl)-1,3-thiazol-2-yl]-1-methyl-1H-pyrrolo[2,3-b]pyridine]
